Test results as given in patent US20240190854A1, “PYRIMIDINE OR PYRIDINE DERIVATIVES USEFUL AS HCN2 MODULATORS” (King's College London, priority 2021, published 2024).
Counter-ions that a name gives are not always drawn.

How the values were obtained:
[1] = molecular target: HCN4 (Homo sapiens (Human), UniProt Q9Y3Q4); assay: HCN4 current assay using PatchXpress 7000A; type: cell-based; settings: PatchXpress protocol; read-out: PX HCN4 IC50
Description: (§1) Example 126A, Using PatchXpress 7000A
(§2) Solutions for recording HCN currents were:
(§3) The peak inward current measured at the end of the pulse to −110 mV (HCN1 and HCN2) or −130 mV (HCN4) was measured and any leak current subtracted to calculate the HCN current. The HCN current amplitude was measured after each control or compound addition and normalized to the control amplitude (Control A).
(§4) All experiments were performed at room temperature (approximately 22° C.).
(§5) Each test compound concentration was applied to the cell for seven (7) minutes, at which point the next cumulative concentration was applied.

[2] = molecular target: HCN2 (Homo sapiens (Human), UniProt Q9UL51); assay: HCN2 current assay using PatchXpress 7000A; type: cell-based; settings: PatchXpress protocol; read-out: PX HCN2 IC50
Description: as §1, §2
The membrane voltage was then stepped back to −30 mV for a further 8 seconds.
as §3, §4, §5

Sequence of HCN4 (Q9Y3Q4 whole entry, species assumed): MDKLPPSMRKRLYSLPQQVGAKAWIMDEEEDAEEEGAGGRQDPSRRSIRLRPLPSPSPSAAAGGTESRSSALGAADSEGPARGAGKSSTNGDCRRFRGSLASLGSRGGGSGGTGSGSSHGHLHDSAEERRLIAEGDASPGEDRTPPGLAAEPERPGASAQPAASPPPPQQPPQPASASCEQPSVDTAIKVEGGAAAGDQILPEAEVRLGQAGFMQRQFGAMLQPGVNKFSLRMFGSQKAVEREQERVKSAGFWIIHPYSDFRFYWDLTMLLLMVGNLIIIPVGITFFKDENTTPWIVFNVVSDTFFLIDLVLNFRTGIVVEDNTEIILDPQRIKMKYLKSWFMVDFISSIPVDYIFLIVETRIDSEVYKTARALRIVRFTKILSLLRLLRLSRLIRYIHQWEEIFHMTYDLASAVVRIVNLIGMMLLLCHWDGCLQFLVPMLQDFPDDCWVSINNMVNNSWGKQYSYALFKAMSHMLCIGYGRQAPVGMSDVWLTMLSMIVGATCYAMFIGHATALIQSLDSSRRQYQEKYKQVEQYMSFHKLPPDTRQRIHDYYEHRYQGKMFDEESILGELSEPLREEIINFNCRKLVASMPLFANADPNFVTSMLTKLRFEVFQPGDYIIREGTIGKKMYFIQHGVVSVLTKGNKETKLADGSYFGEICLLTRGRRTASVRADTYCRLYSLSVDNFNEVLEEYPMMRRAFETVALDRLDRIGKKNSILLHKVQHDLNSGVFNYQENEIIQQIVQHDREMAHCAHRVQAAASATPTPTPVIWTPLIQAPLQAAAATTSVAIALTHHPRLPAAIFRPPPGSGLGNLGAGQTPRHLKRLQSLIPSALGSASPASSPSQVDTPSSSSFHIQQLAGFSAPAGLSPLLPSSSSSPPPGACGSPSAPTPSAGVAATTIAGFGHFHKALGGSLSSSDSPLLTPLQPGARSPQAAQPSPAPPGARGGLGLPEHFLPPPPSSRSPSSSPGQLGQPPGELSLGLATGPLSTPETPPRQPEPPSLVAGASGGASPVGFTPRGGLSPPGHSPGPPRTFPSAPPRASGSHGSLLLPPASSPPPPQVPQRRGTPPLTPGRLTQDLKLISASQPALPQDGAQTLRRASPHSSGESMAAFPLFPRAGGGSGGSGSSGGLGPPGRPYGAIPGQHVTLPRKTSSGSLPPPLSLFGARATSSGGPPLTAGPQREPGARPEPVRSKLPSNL
Sequence of HCN2 (Q9UL51 whole entry): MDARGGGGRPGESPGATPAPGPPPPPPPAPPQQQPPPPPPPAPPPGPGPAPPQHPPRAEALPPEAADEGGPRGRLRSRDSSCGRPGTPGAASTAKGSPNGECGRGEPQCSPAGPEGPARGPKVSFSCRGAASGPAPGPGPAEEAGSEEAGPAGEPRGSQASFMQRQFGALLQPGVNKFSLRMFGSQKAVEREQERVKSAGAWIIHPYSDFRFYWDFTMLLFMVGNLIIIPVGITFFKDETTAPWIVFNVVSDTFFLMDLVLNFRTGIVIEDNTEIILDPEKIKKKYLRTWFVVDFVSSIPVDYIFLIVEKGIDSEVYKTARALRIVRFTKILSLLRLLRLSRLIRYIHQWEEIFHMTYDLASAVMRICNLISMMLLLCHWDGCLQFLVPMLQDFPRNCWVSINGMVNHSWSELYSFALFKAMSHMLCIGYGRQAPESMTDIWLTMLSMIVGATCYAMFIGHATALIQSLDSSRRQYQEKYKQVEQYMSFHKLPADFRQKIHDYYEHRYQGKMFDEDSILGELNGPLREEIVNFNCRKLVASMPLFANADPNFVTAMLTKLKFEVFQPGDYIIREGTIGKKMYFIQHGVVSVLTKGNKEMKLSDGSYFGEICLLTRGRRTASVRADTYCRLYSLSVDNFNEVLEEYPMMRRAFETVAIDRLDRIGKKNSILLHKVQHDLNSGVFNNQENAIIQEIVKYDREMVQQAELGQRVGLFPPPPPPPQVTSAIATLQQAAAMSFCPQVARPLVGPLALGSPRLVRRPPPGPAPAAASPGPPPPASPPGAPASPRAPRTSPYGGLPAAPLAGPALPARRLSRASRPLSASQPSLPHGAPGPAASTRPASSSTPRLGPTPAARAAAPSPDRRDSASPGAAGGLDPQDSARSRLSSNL

Row | SMILES | IC50 [1] | IC50 [2]
1 | Cc1ccc(C)c(C[C@H](N)c2ccccc2-c2noc3ccccc23)n1 [Example 59, (S)-1-[2-(benzo[d]isoxazol-3-yl)phenyl]-2(6-vinylpyridin-2-yl)ehtan-1-amine] | 6.8 µM | 0.9 µM
2 | N#Cc1ccc(C[C@H](N)c2ccccc2-c2noc3cc(Br)ccc23)nc1 [Example 81, (S)-1-[2-(6-Bromobenzo[d]isoxazol-3-yl)phenyl]-2-(5-cyanopyridine-2-yl)ethan-1-amine] | > 30 µM | 10.8 µM
3 | N[C@@H](Cc1ccccn1)c1c(Br)cccc1-c1noc2ccccc12 [Example 87, (S)-1-[2-(Benzo[d]isoxazol-3-yl)-6-bromophenyl]-2-(pyridine-2-yl)ethan-1-amine hydrochloride] | 18.8 µM | 1.7 µM
4 | CC(c1ccccn1)C(N)c1ccccc1-c1noc2ccccc12 (single isomer, unassigned; diastereomer 3) [Example 3, 1-[2-(Benzo[d]isoxazol-3-yl)phenyl]-2-(pyridin-2-yl)propan-1-amine hydrochloride (diastereomer 3)] | > 30 µM | 2.3 µM
5 | CNC(=O)c1cccc(C[C@H](N)c2ccccc2-c2noc3ccccc23)n1 [Example 105, (S)-6-{2-Amino-2-[2-(benzo[d]isoxazol-3-yl)phenyl]ethyl}-N-methylpyridine-2-carboxamide hydrochloride] | 6.2 µM | 4.2 µM
6 | CS(=O)(=O)c1cccc(C[C@H](N)c2ccccc2-c2noc3ccccc23)n1 [Example 103, (S)-1-[2-(Benzo[d]isoxazol-3-yl)phenyl]-2-[6-(methylsulfonyl)pyridin-2-yl]ethan-1-amine] | 22.4 µM | 3 µM
7 | CNC(=O)Nc1cccc(C[C@H](N)c2ccccc2-c2noc3ccccc23)n1 [Example 122, (S)-1-(6-{2-Amino-2-[2-(benzo[d]isoxazol-3-yl)phenyl]ethyl}pyridine-2-yl)-3-methylurea hydrochloride] | 28.1 µM | 9.5 µM

Results, then the molecule that gave them:

Row | IC50 [1] | IC50 [2] | SMILES
8 | 6.7 µM | 1.6 µM | C#Cc1ccc2c(-c3ccccc3[C@@H](N)Cc3ccccn3)noc2c1 [Example 31, (S)-1-[2-(6-Ethynylbenzo[d]isoxazol-3-yl)phenyl]-2-(pyridine-2-yl)ethan-1-amine hydrochloride]
9 | 4.9 µM | 5.6 µM | N[C@@H](Cc1cccc(N2CC[C@@H](O)C2)n1)c1ccccc1-c1noc2ccccc12 [Example 50, (R)-1-(6-{(S)-2-Amino-2-[2-(benzo[d]isoxazol-3-yl)phenyl]ethyl}pyridine-2-yl)pyrrolidin-3-ol hydrochloride]
10 | 13.2 µM | 2 µM | N[C@@H](Cc1cccc(CO)n1)c1ccccc1-c1noc2ccccc12 [Example 98, (S)-1-[2-(Benzo[d]isoxazol-3-yl)phenyl]-2-(6-hydroxymethylpyridine-2-yl)ethan-1-amine hydrochloride]
11 | 3.4 µM | 1.7 µM | COCCN(C)c1cccc(C[C@H](N)c2ccccc2-c2noc3ccccc23)n1 [Example 51, (S)-6-{2-Amino-2-[2-(benzo[d]isoxazol-3-yl)phenyl]ethyl}-N-(2-methoxyethyl)-N-methyl pyridin-2-amine hydrochloride]
12 | 5.1 µM | 3.5 µM | COCCNC(=O)c1cccc(C[C@H](N)c2ccccc2-c2noc3ccccc23)n1 [Example 108, (S)-6-{2-[Amino-2-(benzo[d]isoxazol-3-yl)phenyl]ethyl}-N-(2-methoxyethyl)pyridine-2-carboxamide hydrochloride]
13 | > 30 µM | 1.8 µM | N[C@@H](Cc1ccccn1)c1cc(Br)ccc1-c1noc2ccccc12 [Example 83, (S)-1-[2-(benzo[d]isoxazol-3-yl)-5-bromophenyl]-2-(pyridine-2-yl)ethan-1-amine]
14 | 7.2 µM | 0.5 µM | Cc1ccc(C#N)nc1C[C@H](N)c1ccccc1-c1noc2ccccc12 [Example 58, (S)-1-[2-(Benzo[d]isoxazol-3-yl)phenyl]-2-(6-cyano-3-methylpyridin-2-yl)ethan-1-amine]
